From US10781236B2, “Bacteriocin composition and method” (priority 2015, dated 2020)

Experiments:
E. faecalis LMGT 2333 = test: Relative MIC, inhibitory spectrum; type: cell-based, Enterococcus faecalis; settings: relative to L. lactis IL 1403 = 1
L. Sakei LMGT 2361 = test: Relative MIC, inhibitory spectrum; type: cell-based, Lactobacillus sakei; settings: relative to L. lactis IL 1403 = 1
L. plantarum LMGT 2379 = test: Relative MIC, inhibitory spectrum; type: cell-based, Lactobacillus plantarum; settings: relative to L. lactis IL 1403 = 1
L. lactis LMGT 2081 = test: Relative MIC, inhibitory spectrum; type: cell-based, Lactococcus lactis; settings: relative to L. lactis IL 1403 = 1
S. salivarius = test: Antimicrobial activity against problematic bacteria; type: cell-based, Streptococcus salivarius; settings: clinical sources
Procedure: (§1) To screen for bacteriocin producers with broad inhibition spectra (BIS), Lactococcus lactis, Lactobacillus sakei, Lactobacillus plantarum, Listeria innocua, and Staphylococcus aureus from the food and dairy environment were used as indicators in the first round of screening. The antimicrobial screening was performed using the agar diffusion bioassay as previously described (Holo et al., 1991, J. Bacteriol., 173, p 3879-3887). Briefly, indicator cells from overnight cultures were diluted 100-fold in 5 mL of BHI soft agar and plated out as a lawn on BHI agar plates. Potential bacteriocin producers at volumes of 3 μL were spotted on the indicator lawn and then incubated at appropriate temperatures for 24 h for cell growth and cell inhibition. Inhibition was detected as clear zones around the spotted cells.
(§2) As the antimicrobial activity of garvicin KS is relatively broad, we explored further its potential to kill a larger panel of important pathogens. The list contained 147 problematic or potentially problematic bacteria of species belonging to Listeria, Staphylococcus, Streptococcus and Enterococcus, isolated from food and clinical sources. In this assay, we compared the antimicrobial activity of garvicin KS with that of garvicin ML and nisin, the last one being known as a broad inhibition-spectrum bacteriocin (AIKhatib et al., 2014, PLOS One 9:e102246 doi:10.1371/joumal.pone.0102246). […]

L. plantarum LMGT 2003 = test: Relative MIC, inhibitory spectrum; type: cell-based, Lactobacillus plantarum; settings: relative to L. lactis IL 1403 = 1
L. plantarum LMGT 2352 = test: Relative MIC, inhibitory spectrum; type: cell-based, Lactobacillus plantarum; settings: relative to L. lactis IL 1403 = 1
[1] = system: 53 strains of different genera in the Firmicutes family; test: Inhibitory spectrum, whole panel of Table 3; type: cell-based; settings: 53 strains of Table 3
Description: A more extended comparison between the bacteriocin activity of L. garvieae KS 1546 (termed garvicin KS) and L. garvieae DCC 43 (garvicin ML producer) can also be seen in Table 3.

E. faecalis = test: Antimicrobial activity against problematic bacteria; type: cell-based, Enterococcus faecalis
Procedure: as §1, §2

L. Sakei LMGT 2799 = test: Relative MIC, inhibitory spectrum; type: cell-based, Lactobacillus sakei; settings: relative to L. lactis IL 1403 = 1
S. pneumonia = test: Antimicrobial activity against problematic bacteria; type: cell-based, Streptococcus pneumonia
Procedure: as §1, §2

P. pentosaceus LMGT 2001 = test: Relative MIC, inhibitory spectrum; type: cell-based, Pediococcus pentosaceus; settings: relative to L. lactis IL 1403 = 1
L. innocua = test: Antimicrobial activity against problematic bacteria; type: cell-based, Listeria innocua; settings: food sources
Procedure: as §1, §2

L. lactis LMGT 3419 = test: Relative MIC, inhibitory spectrum; type: cell-based, Lactococcus lactis; settings: relative to L. lactis IL 1403 = 1
E. faecium LMGT 2763 = test: Relative MIC, inhibitory spectrum; type: cell-based, Enterococcus faecium; settings: relative to L. lactis IL 1403 = 1
E. faecium LMGT 2772 = test: Relative MIC, inhibitory spectrum; type: cell-based, Enterococcus faecium; settings: relative to L. lactis IL 1403 = 1
L. curvatus LMGT 2715 = test: Relative MIC, inhibitory spectrum; type: cell-based, Lactobacillus curvatus; settings: relative to L. lactis IL 1403 = 1
L. curvatus LMGT 2371 = test: Relative MIC, inhibitory spectrum; type: cell-based, Lactobacillus curvatus; settings: relative to L. lactis IL 1403 = 1
L. Sakei LMGT 2380 = test: Relative MIC, inhibitory spectrum; type: cell-based, Lactobacillus sakei; settings: relative to L. lactis IL 1403 = 1
S. aureus LMGT 3265 = test: Relative MIC, inhibitory spectrum; type: cell-based, Staphylococcus aureus; settings: relative to L. lactis IL 1403 = 1
[2] = system: Pediococcus acidilactici LMGT 2002; test: Relative MIC, inhibitory spectrum; type: cell-based; settings: relative to L. lactis IL 1403 = 1
E. faecium LMGT 2783 = test: Relative MIC, inhibitory spectrum; type: cell-based, Enterococcus faecium; settings: relative to L. lactis IL 1403 = 1
L. ivanovii LMGT 2813 = test: Relative MIC, inhibitory spectrum; type: cell-based, Listeria ivanovii; settings: relative to L. lactis IL 1403 = 1
P. pentosaceus LMGT 2366 = test: Relative MIC, inhibitory spectrum; type: cell-based, Pediococcus pentosaceus; settings: relative to L. lactis IL 1403 = 1
L. seelingeri = test: Antimicrobial activity against problematic bacteria; type: cell-based, Listeria seelingeri; settings: food sources
Procedure: as §1, §2

L. grayi = test: as above; type: cell-based, Listeria grayi; settings: food sources
Procedure: as §1, §2

[3] = system: 147 problematic or potentially problematic bacteria of Listeria, Staphylococcus, Streptococcus and Enterococcus; test: Antimicrobial activity against problematic bacteria, whole panel; type: cell-based; settings: for number of sensitive strains / number of strains tested: Total
Procedure: as §1
As the antimicrobial activity of garvicin KS is relatively broad, we explored further its potential to kill a larger panel of important pathogens. The list contained 147 problematic or potentially problematic bacteria of species belonging to Listeria, Staphylococcus, Streptococcus and Enterococcus, isolated from food and clinical sources. In this assay, we compared the antimicrobial activity of garvicin KS with that of garvicin ML and nisin, the last one being known as a broad inhibition-spectrum bacteriocin (AIKhatib et al., 2014, PLOS One 9:e102246 doi:10.1371/joumal.pone.0102246). […] In all cases, garvicin KS was either equal or better than nisin, regardless of whether the isolates were from clinical or food environments, except for the activity toward clinical isolates of S. aureus where nisin appeared marginally better (24/25 for nisin and 23/25 for KS).

[4] = system: L. monocytogenes LMGT 2650; test: Relative MIC, inhibitory spectrum; type: cell-based, Listeria monocytogenes; settings: relative to L. lactis IL 1403 = 1
E. faecium LMGT 2876 = test: Relative MIC, inhibitory spectrum; type: cell-based, Enterococcus faecium; settings: relative to L. lactis IL 1403 = 1
L. innocua LMGT 2785 = test: Relative MIC, inhibitory spectrum; type: cell-based, Listeria innocua; settings: relative to L. lactis IL 1403 = 1
L. lactis LMGT 2130 = test: Relative MIC, inhibitory spectrum; type: cell-based, Lactococcus lactis; settings: relative to L. lactis IL 1403 = 1
S. agalactia = test: Antimicrobial activity against problematic bacteria; type: cell-based, Streptococcus agalactia; settings: clinical sources
Procedure: as §1, §2

L. plantarum LMGT 2358 = test: Relative MIC, inhibitory spectrum; type: cell-based, Lactobacillus plantarum; settings: relative to L. lactis IL 1403 = 1

garvicin ML
Relative MIC value (E. faecalis LMGT 2333): 64-128
Relative MIC value (L. Sakei LMGT 2361): 32
Relative MIC value (L. plantarum LMGT 2379): 32
Relative MIC value (L. lactis LMGT 2081): ≤0.25
number of sensitive strains / number of strains tested (S. salivarius): 1/1
Relative MIC value (L. plantarum LMGT 2003): 64
Relative MIC value (L. plantarum LMGT 2352): 16
number of sensitive strains (n) among 53 strains [1]: 39
sensitive portion of 53 strains [1]: about 74%
number of sensitive strains / number of strains tested (E. faecalis; clinical sources): 0/2
number of sensitive strains / number of strains tested (E. faecalis; food sources): 18/40
Relative MIC value (L. Sakei LMGT 2799): 8-16
number of sensitive strains / number of strains tested (S. pneumonia; clinical sources): 1/1
number of sensitive strains / number of strains tested (S. pneumonia; food sources): 1/1
Relative MIC value (P. pentosaceus LMGT 2001): 16-32
number of sensitive strains / number of strains tested (L. innocua): 1/6
Relative MIC value (L. lactis LMGT 3419): ≤0.25
Relative MIC value (E. faecium LMGT 2763): 32-64
Relative MIC value (E. faecium LMGT 2772): 32
Relative MIC value (L. curvatus LMGT 2715): 32
Relative MIC value (L. curvatus LMGT 2371): 32
Relative MIC value (L. Sakei LMGT 2380): 32
Relative MIC value (S. aureus LMGT 3265): ≥512
Relative MIC value [2]: 32
Relative MIC value (E. faecium LMGT 2783): 64
Relative MIC value (L. ivanovii LMGT 2813): 32
Relative MIC value (P. pentosaceus LMGT 2366): 64
number of sensitive strains / number of strains tested (L. seelingeri): 0/1
number of sensitive strains / number of strains tested (L. grayi): 0/2
portion of the 147 strains killed ([3]; 147 strains, clinical and food): 34.6%
strains killed among the 147 strains tested ([3]; 147 strains, clinical and food): 51 strains
number of sensitive strains / number of strains tested ([3]; clinical sources): 12/34
number of sensitive strains / number of strains tested ([3]; food sources): 39/113
Relative MIC value [4]: 64
Relative MIC value (E. faecium LMGT 2876): 64-128
Relative MIC value (L. innocua LMGT 2785): 32
Relative MIC value (L. lactis LMGT 2130): 8
number of sensitive strains / number of strains tested (S. agalactia): 1/1
Relative MIC value (L. plantarum LMGT 2358): 512
